From US11173116B2, “Drug delivery system kit comprising an enzyme” (INDUSTRY-ACADEMIC COOPERATION FOUNDATION, YONSEI UNIVERSITY, priority 2018, dated 2021)
Where a name gives a salt, the structure may show the parent alone.

Tested on: HeLa cells
Test: Cytotoxicity test, MTT assay
Type: cell-based
Conditions: amount of 1 μg
Experimental: HeLa cells were cultured for 2 to 3 days in a 100 mm culture dish (SPL, Pocheon-si, Korea) in a 5% CO2 incubator. When 95% of the cells were grown, the cells were detached by trypsin-EDTA treatment. Thereafter, for a toxicity test, the cells were inoculated at a density of 7,000 cells/well in a 24-well plate. For cell attachment, the cells were cultured for one day, and for cytotoxicity and anticancer assays, the enzyme, DOX, and DOX-free hollow drug delivery system in the culture medium were used to treat the cells separately. After the materials were cultured for one day, the cytotoxicity was measured using a 3-(4,5-dimethylthiazol-2-yl)-2,5-diphenyltetrazolium bromide (MTT) assay. An MTT solution (5 mg/mL) in PBS was used to treat the cells for 2 hours in an incubator, the cells were dissolved in DMSO, and the absorbance at a wavelength of 540 nm was measured using a plate reader (SpectraMax 340 PC; Molecular Devices, Sunnyvale, Calif., USA).
The anticancer effect of the DOX-conjugated drug delivery system was investigated through a cytotoxicity test. In this case, 1 μg of the DOX-conjugated hollow drug delivery systems of Preparation Examples 4 and 5 were used. A cell culture medium was composed of 90% Dulbecco's Modified Eagle Medium, 10% fetal bovine serum, and 1% penicillin-streptomycin-glutamine. […]

COc1cccc2c1C(=O)c1c(O)c3c(c(O)c1C2=O)C[C@@](O)(C(=O)CO)C[C@@H]3O[C@H]1C[C@H](N)[C@H](O)[C@H](C)O1 [DOX, doxorubicin hydrochloride]
cytotoxicity: very high toxicity
